From PMC9916778 (International Journal of Molecular Sciences, 2023)

Experiments:
A2780 cells [1] = experiment: Cell cycle analysis (flow cytometry); type: cell-based, human; conditions: A2780, half-cytotoxic concentration, 24 h
Experimental: After 24 h, the cells were treated with a 4 µM solution of complex (1) and cultivated for the next 24 h. Then, the cells were washed once with PBS (0.1 M, pH 7.4), and cell cycle analysis was performed using a BD Cycletest^TM Plus DNA kit (Becton Dickinson, Franklin Lakes, NJ, USA) according to the manufacturer’s protocol. The data were acquired using a BD FACSVerse flow cytometer (Becton Dickinson, USA) in three independent experiments, each performed in duplicate, while at least 5 × 10^3 events were recorded for each sample.

PPARγ = experiment: Immunocytochemical analysis of PPARγ expression and localisation; type: cell-based, human; conditions: 100 nM, 1 h pre-treatment, LPS-stimulated THP1-Blue NF-κB macrophages
Experimental: THP1-Blue™ NF-κB cells were seeded onto a µ-Slide 8 Well (Ibidi; Gräfelfing, Germany) and differentiated into macrophages by […] (PMA) at the final concentration of 50 ng/mL, as was described previously.
Differentiated macrophages were washed by PBS and covered by fresh serum-free medium for 2 h. […] One hour later, the cells were challenged by LPS for 24 h. Then, the cells were washed by PBS and fixed by 4% paraformaldehyde dissolved in PBS for 10 min. Cell permeabilization and blocking of free binding sites were performed by 0.1% (v/v) Triton X100 and 5% (w/v) bovine serum albumin (BSA) dissolved in PBS for 1 h at room temperature. After that, cells were washed by PBS with 0.1% (v/v) Tween 20 and covered by fresh PBS with 5% BSA and 0.1% Tween 20 containing Alexa Fluor® 546-labelled anti-PPARγ antibody diluted 1:100 (catalogue number sc-7273; Santa Cruz Biotechnology; Dallas, TX, USA) for a further 24 h. Then, cells were washed by PBS with 0.1% Tween 20 and incubated with Hoechst stain diluted 1:2000 for 10 min. The remaining stain was washed out by PBS and covered by fresh PBS for further microscope analysis. The confocal microscope Leica TCS SP8 MP (Leica Microsystems, Mannheim, Germany) was used for obtaining the images for the immunocytochemical analysis of PPARγ expression and localization.

A2780 cells [2] = experiment: Time-dependent cellular uptake of gold (ICP-MS); type: in vitro ADME, human
Experimental: Figure 3 The intracellular gold concentration levels caused by the incubation of [Au(kin)(PPh3)] (1), [Au(PPh3)Cl], and Auranofin with A2780 cells after 2 h, 6 h, 12 h, 24 h, 48 h, and 72 h. The results were obtained by ICP-MS analyses of three parallel samples and are shown as mean values with error bars corresponding to the standard deviation values of the gold concentration expressed in ng of gold per 10^6 cells. TEXT PRINTED IN THE PICTURE: [Au(kin)PPh3] (1): Intracellular Au content [ng/10^6 cells]: 121.3; Intracellular Au content [ng/10^6 cells]: 97.1; Intracellular Au content [ng/10^6 cells]: 88.8; Intracellular Au content [ng/10^6 cells]: 89.4; Intracellular Au content [ng/10^6 cells]: 287.5; Intracellular Au content [ng/10^6 cells]: 352.9 | Auranofin: Intracellular Au content [ng/10^6 cells]: 182.5; Intracellular Au content [ng/10^6 cells]: 231.1; Intracellular Au content [ng/10^6 cells]: 361.3; Intracellular Au content [ng/10^6 cells]: 333.9; Intracellular Au content [ng/10^6 cells]: 555.3; Intracellular Au content [ng/10^6 cells]: 320.2 | [Au(PPh3)Cl]: Intracellular Au content [ng/10^6 cells]: 84.6; Intracellular Au content [ng/10^6 cells]: 106.1; Intracellular Au content [ng/10^6 cells]: 80.7; Intracellular Au content [ng/10^6 cells]: 97.6; Intracellular Au content [ng/10^6 cells]: 304.2; Intracellular Au content [ng/10^6 cells]: 415.8 DOUBTS OF THE COPYIST ABOUT THIS PICTURE: Point labels are black, not coloured by series. Where the [Au(kin)PPh3] (1) and [Au(PPh3)Cl] curves run close together, I assigned the labels by their position above or below the points: 97.1/106.1, 88.8/80.7, 89.4/97.6 and 287.5/304.2. These assignments are not fully certain. / No incubation time is printed beside any point label, only on the axis, so no time condition is given with the values.

[3] = test system: human cancer cell lines (A2780, A2780R, PC-3, 22Rv1, and THP-1); experiment: In vitro cytotoxicity, summary statements over the panel of cell lines; type: cell-based; conditions: IC50 for normal cell line/IC50 for cancerous cell line
Experimental: The testing was performed on the ovarian carcinoma (A2780), Cisplatin-resistant ovarian carcinoma (A2780R), prostate adenocarcinoma (PC-3), prostate carcinoma (22Rv1), and leukemia monocytic (THP-1) and intestinal colon adenocarcinoma (LS180) human cell lines that were obtained from the ATCC collection of cell lines and cultivated according to the producer’s instructions. The reference normal cell line of human fetal fibroblasts (MRC-5) was obtained from the same commercial source and maintained according to the producer’s instructions. The half-maximal inhibitory concentrations (IC50) were calculated from dose–response curves by means of the GraphPad Prism 6 software (GraphPad Software, San Diego, CA, USA).

Row | Compound | Effect on the cell cycle (A2780 cells [1]) | Effect on the amount of PPARγ (PPARγ) | Intracellular Au content, 2 h (A2780 cells [2]) [ng/10^6 cells] | Intracellular Au content, 6 h (A2780 cells [2]) [ng/10^6 cells] | Intracellular Au content, 12 h (A2780 cells [2]) [ng/10^6 cells] | Intracellular Au content, 24 h (A2780 cells [2]) [ng/10^6 cells] | Intracellular Au content, 48 h (A2780 cells [2]) [ng/10^6 cells] | Intracellular Au content, 72 h (A2780 cells [2]) [ng/10^6 cells] | Population of cells in G2/M phase (A2780 cells [1]) [%] | Population of cells in S phase (A2780 cells [1]) [%] | Number of cells in the G0/G1 phase (A2780 cells [1]; vs untreated control) | selectivity index (SI) [3] | Excess of intracellular gold level over [Au(kin)(PPh3)] and [Au(PPh3)Cl] (A2780 cells [2]; A2780 cells, after 12 h of incubation)
1 | [Cl][Au].c1ccc(P(c2ccccc2)c2ccccc2)cc1 [[Au(PPh3)Cl]] | practically no effect on the cell cycle | did not show this effect | 84.6 | 106.1 | 80.7 | 97.6 | 304.2 | 415.8 |  |  |  |  | 
2 | CC[PH](CC)(CC)[Au][S][C@@H]1O[C@H](COC(C)=O)[C@@H](OC(C)=O)[C@H](OC(C)=O)[C@H]1OC(C)=O [Auranofin, [3,4,5-triacetyloxy-6-(acetyloxymethyl)-oxane-2-thiolate-(triethylphosphine)gold(I)]] |  |  |  |  |  |  |  |  | 23.3 ± 3.6 | 19.4 ± 0.5 | significant decrease in the number of cells in the G0/G1 phase | around 1 | up to 4 times
